In patent US10561618B2, “Orally available pharmaceutical formulation suitable for improved management of movement disorders” (Contera Pharma ApS, priority 2012, dated 2020):
Blank lines part the entries; values can stand above or below the compound they belong to.

Assays:
[1] = tested on: unilaterally 6-OHDA-lesioned rats; experiment: 6-OHDA rat model: L-DOPA induced AIMs and drugs screening test; format: in vivo; conditions: for L-DOPA induced AIMs: Example II, 30 min before test
[2] = tested on: Parkinson's disease; conditions: cited from earlier work
[3] = Pharmacokinetic profiling of the fixed dose combination product; format: in vivo; conditions: cynomolgus monkeys, oral; for Time of maximum plasma concentration: one buspirone (IR)/zolmitriptan (CR) 10 mg/1 mg tablet (batch 0614/2012), n=4
Description: Four non-naïve male cynomolgus monkeys (3.5 to 7 kg; Hainan Jingang Laboratory Animal Co. Ltd.) were used to evaluate the pharmacokinetics of the fixed dose combination product of the present invention. Animals were individually housed in stainless-steel mesh cages during in-life in accordance with the National Research Council “Guide for the Care and Use of Laboratory Animals” and fed twice daily with 120 g of Certified Monkey Diet daily (Beijing Vital Keao Feed Co., Ltd. Beijing, P. R. China). At test occasion, animals were fed the day before at 3:30 to 4:00 pm and the remaining food removed after approximately 1 to 1.5 hours of feeding (at 5:00 pm). Food was withheld until 4-hour post-dosage. The study was conducted in compliance with the Animal Welfare Act, the Guide for the Care and Use of Laboratory Animals, and the Office of Laboratory Animal Welfare (OLAW).
Each monkey was dosed one buspirone hydrochloride (IR)/zolmitriptan (CR) 10 mg/1 mg combination product (batch 0614/2012) orally using tablet gun, placing one tablet beyond the root of tongue. Subsequently, the animals' throat was massaged to aid passage of the tablet down the esophagus and 5-10 mL drinking water injected into its mouth using a syringe. After administration of drinking water, the animals' jaw was checked to see if the tablet was swallowed.
Blood samples were draw from a peripheral vessel from restrained, non-sedated animals at the following time points: pre-dose, 15, 30, 60 min, 2, 4, 8, 12 and 24 h post-dose into (K2) EDTA-coated tubes. Plasma was obtained from the blood samples by centrifugation (3,000×g for 10 minutes at 2 to 8° C.) within one hour of collection and stored frozen in a freezer at −70° C. until bio-analysis.
Analytes were extracted from plasma by mixing 200 μL 0.1% formic acid (FA) in 50% acetonitrile (ACN)/methanol (MeOH) containing 100 ng/mL Labetalol as internal standard with 50 μL plasma sample, followed by centrifugation (4000 rpm for 20 min).
Subsequently, 100 μL of supernatant was removed and mixed with 150 μL 0.1% FA in 25% MeOH/Water, vortexed 10 min and centrifuged for 10 min at 4000 rpm. Chromatographic separation from other constituents of the sample was achieved by ultra-performance liquid chromatography (Acquity, Waters), followed by tandem mass spectrometry (MS/MS) detection (API 4000, AB Sciex Instruments), injecting 20 μL sample. The analytes were separated by an ACE 5 phenyl (2.1×100 mm ID) column maintained at 40° C., using a gradient of A: 10 mM ammonium acetate in water and solvent B: 0.1% FA in 95% ACN)/water (table 4).
Buspirone, zolmitriptan and labetalol were detected at parent/daughter molecular mass of 386.10/122.20, 288.10/58.20 and 329.20/161.90 m/z, and a collision energy of 41, 25 and 50 eV, respectively. Retention times were 2.3, 1.3 and 2.0 min for buspirone, zolmitriptan and labetalol, respectively. Peak areas correlated linearly (r^2>0.997, 1/x^2 weighting) with buspirone and zolmitriptan concentrations in the range 0.5-1000 ng/mL. Lower limit of quantification (LLOQ) was 0.5 ng/mL for buspirone and zolmitriptan based on a signal-to-noise ratio>10:1.
The PK analysis was performed with non-linear mixed effects modelling using Phoenix NMLE 1.2 (Pharsight Corporation). A one- or two-compartment model with first-order absorption and elimination rate was fitted to the time-concentration profiles. Furthermore, model development included modelling of the data with an absorption lag-time (Tlag). To adequately characterise a potential lag-time, the plasma concentrations<LLOQ (Lower Limit of Quantification) was fixed to ½ of LLOQ (0.25 ng/mL) for the sample just prior to the first quantifiable concentration. Best model fit was evaluated based on basic goodness-of-fit plots, parameter precision, visual predictive check and objective function value. A drop in objective function value of […] for nested models with one added parameter was considered a significant improvement in model fit.

[4] = tested on: LID; conditions: cited from earlier work
[5] = tested on: unilaterally 6-OHDA-lesioned rats; conditions: zolmitriptan administered alone; WO2012/048710; cited from earlier work
[6] = Example VI, buspirone 0.25 or 0.5 mg/kg s.c., tandospirone 1 or 2 mg/kg i.p., 25 min before test
[7] = batch 0614/2012, non-linear mixed effects modelling
[8] = batch 0614/2012, non-linear mixed effects modelling, value (% CV)

Compound: O=C1CC2(CCCC2)CC(=O)N1CCCCN1CCN(c2ncccn2)CC1 [buspirone, 8-[4-(4-pyrimidin-2-ylpiperazin-1-yl)butyl]-8-azaspiro[4.5]decane-7,9-dione]
L-DOPA-induced dyskinesia (AIMs) ([1]; Example I, buspirone 0.5 mg/kg i.p. given alone): only partly reduced AIM | L-DOPA-induced dyskinesia (AIMs) [1, 6]: significantly reduced L-DOPA-induced dyskinesia | Effect on Parkinson's disease or dyskinesia ([2]; doses 10-60 mg/day): did not have any effects on Parkinson's disease or dyskinesia | Disability ratings ([2]; higher doses (100 mg/day)): significant worsening of disability ratings | Effect on dyskinesia ([2]; higher doses (100 mg/day)): reduced dyskinesia | CL/F IIV (inter-individual variability) [3, 7]: 37% | ka IIV (inter-individual variability) [3, 7]: 5.4% | tvQ/F (inter-compartmental clearance) [3, 8]: 18 (11) L/h/kg | tvTlag (absorption lag-time) [3, 8]: no observable lag-time | tvV2/F (volume of peripheral compartment) [3, 8]: 1259 (29) L/kg | tvV/F (volume of central compartment) [3, 8]: 3.9 (26) L/kg | tvka (absorption rate) [3, 8]: 1.0 (13) h^-1 | tyCL/F (clearance) [3, 8]: 13 (124) L/h/kg | Time of maximum plasma concentration [3]: around 0.5 h

Compound: Fc1ccc(-c2cncc(CNC[C@H]3CCc4ccccc4O3)c2)cc1 [sarizotan, 1-[(2R)-3,4-dihydro-2H-chromen-2-yl]-N-([5-(4-fluorophenyl)pyridin-3-yl]methyl)methanamine]
Effect on LID ([4]; phase 2A study and open labeled study): reduced LID | Effect compared to placebo ([4]; several large phase 2b studies): no significant effects

Compound: O=C1[C@@H]2[C@@H]3CC[C@@H](C3)[C@@H]2C(=O)N1CCCCN1CCN(c2ncccn2)CC1 [tandospirone, (1R,2R,6S,7S)-4-{4-[4-(pyrimidin-2yl)piperazin-1-yl]butyl}-4-azatricyclo[5.2.1.02,6]decane-3,5-dione]
L-DOPA induced AIMs ([1]; tandospirone 1 mg/kg i.p. alone): partially and briefly reduce AIMs | L-DOPA induced AIMs ([1]; tandospirone 2 mg/kg i.p. alone): partially and briefly reduce AIMs | L-DOPA-induced dyskinesia (AIMs) [1, 6]: significantly reduced L-DOPA-induced dyskinesia

Time plasma concentration is sustained above limit of quantification ([3]; batch 0614/2012, LLOQ 0.5 ng/mL): 12 h | Absorption rate, slower compared to buspirone ([3]; batch 0614/2012, model): 3 fold | V/F IIV (inter-individual variability) [3, 7]: 0.1% | tvTlag (absorption lag-time) [3, 8]: 0.44 h | tvV/F (volume of central compartment) [3, 8]: 16 (62) L/kg | tvka (absorption rate) [3, 8]: 0.32 (55) h^-1 | tyCL/F (clearance) [3, 8]: 7.0 (11) L/h/kg | tvTlag (absorption lag-time) ([3]; batch 0614/2012, non-linear mixed effects modelling, value (% CV), listed as Zolmitriptan): 0.44 (3.8) h | Time of maximum plasma concentration [3]: 4 h
Compound: CN(C)CCc1c[nH]c2ccc(C[C@H]3COC(=O)N3)cc12 [zolmitriptan, (S)-4-({3-[2-(dimethylamino)ethyl]-1H-indol-5-yl}methyl)-1,3-oxazolidin-2-one]
Inhibition of LID in an animal model for LID [5]: generally fails to inhibit LID
